Test results reported in US20260144883A1, “ANTI-TROP2/EGFR ANTIBODIES AND USES THEREOF” (XADCERA BIOPHARMACEUTICAL (SUZHOU) CO., LTD., priority 2022, published 2026).

How the values were obtained:
Assay in all cases: In vitro killing activity (CellCounting-Lite 2.0, 7 days)
Assay type in all cases: cell-based
[1] = test system: HCC827 cells; conditions: Homo sapiens, 168 h
[2] = test system: NCI-H292 cells; conditions: Homo sapiens, 168 h
[3] = test system: A431 cells; conditions: Homo sapiens, A-431, 168 h
[4] = test system: Panc 02.03 cells; conditions: Homo sapiens, Panc 02.03, 168 h

Compound `CC[C@@]1(O)C(=O)OCc2c1cc1n(c2=O)Cc2c-1nc1ccc(N)c3c1c2CCO3` [CPT2, (S)-4-amino-9-ethyl-9-hydroxy-1,9,12,15-tetrahydro-13H-pyrano[4,3,2-de]pyrano[3′,4′:6,7]indolizino[1,2-b]quinoline-10,13(2H)-dione] has an IC50 [1] of 1.69 nM, an IC50 [2] of 0.728 nM and an IC50 [3] of 1.38 nM. It also gave an IC50 [4] of 0.981 nM.
